Here are results for three compounds from ChEMBL document CHEMBL2417397, “Synthesis and biological properties of new N-Mannich bases derived from 3-methyl-3-phenyl- and 3,3-dimethyl-succinimides. Part V” (Eur J Med Chem, 2013).

Calls of active or inactive are those of the source. The rule behind the calls is not given here.

In the first data set the test system is Rattus norvegicus. Put plainly: Anticonvulsant activity in Sprague-Dawley albino rat assessed as protection against maximal electroshock-induced seizures at 30 mg/kg, po after 0.25 hrs. The data set is classed as functional.
Details: not given
Take `COc1ccccc1N1CCN(CN2C(=O)CC(C)(c3ccccc3)C2=O)CC1` (stereo unspecified): the result was inactive.

Take `Cc1cccc(N2CCN(CN3C(=O)CC(C)(c4ccccc4)C3=O)CC2)c1` (stereo unspecified): the outcome was inactive.

The test system of a further data set is Vibrio harveyi. The data set can be described thus: Induction of mutagenecity in Vibrio harveyi BB7X. The data set is classed as organism-based. The note with it: in vivo.
In the case of `COc1cccc(N2CCN(CN3C(=O)CC(C)(c4ccccc4)C3=O)CC2)c1` (stereo unspecified), the Activity result is on record as “Non-toxic”.

For the compound `COc1ccccc1N1CCN(CN2C(=O)CC(C)(c3ccccc3)C2=O)CC1` (stereo unspecified), the Activity result was “Non-toxic”.

Turning to `Cc1cccc(N2CCN(CN3C(=O)CC(C)(c4ccccc4)C3=O)CC2)c1` (stereo unspecified), the Activity result is given as “Non-toxic”.

In the next data set the test system is Rattus norvegicus. The data set can be described thus: Neurotoxicity in Sprague-Dawley albino rat assessed as motor impairment at 30 mg/kg, po. The class given is toxicity, organism-based. On the set-up: dose 30 mg/kg, route oral. The note with it: in vivo.
`COc1ccccc1N1CCN(CN2C(=O)CC(C)(c3ccccc3)C2=O)CC1` (stereo unspecified): the Activity result is recorded as “Non-toxic”.

Regarding `Cc1cccc(N2CCN(CN3C(=O)CC(C)(c4ccccc4)C3=O)CC2)c1` (stereo unspecified), the Activity result was “Non-toxic”.

A further data set deals with Mus musculus. The data set can be described thus: Anticonvulsant activity in ip dosed CF-1 albino mouse assessed as protection against maximal electroshock-induced seizures after 0.5 hrs. The data set is classed as functional.
Details: not given
`COc1cccc(N2CCN(CN3C(=O)CC(C)(c4ccccc4)C3=O)CC2)c1` (stereo unspecified): the MED50 worked out at 100 mg/kg.

`COc1ccccc1N1CCN(CN2C(=O)CC(C)(c3ccccc3)C2=O)CC1` (stereo unspecified): the MED50 was found to be 100 mg/kg.

Regarding `Cc1cccc(N2CCN(CN3C(=O)CC(C)(c4ccccc4)C3=O)CC2)c1` (stereo unspecified), the MED50 is 100 mg/kg.

The test system of another data set is Mus musculus. The data set can be described thus: Neurotoxicity in CF-1 albino mouse at 300 mg/kg, ip after 4 hrs by rotarod test. On the set-up: dose 300 mg/kg, route intraperitoneal. The class given is toxicity, organism-based. As to conditions: in vivo.
For the compound `COc1cccc(N2CCN(CN3C(=O)CC(C)(c4ccccc4)C3=O)CC2)c1` (stereo unspecified), the Activity entry is on record as “Non-toxic”.

In the next data set the test system is Vibrio harveyi. The data set can be described thus: Induction of mutagenecity in Vibrio harveyi BB7M. The class given is organism-based. The note with it: in vivo.
For the compound `COc1cccc(N2CCN(CN3C(=O)CC(C)(c4ccccc4)C3=O)CC2)c1` (stereo unspecified), the Activity result is listed as “Toxic”.

As to `COc1ccccc1N1CCN(CN2C(=O)CC(C)(c3ccccc3)C2=O)CC1` (stereo unspecified), the Activity result was “Toxic”.

As for `Cc1cccc(N2CCN(CN3C(=O)CC(C)(c4ccccc4)C3=O)CC2)c1` (stereo unspecified), the Activity entry is “Toxic”.

In a further data set the test system is Rattus norvegicus. Put plainly: Anticonvulsant activity in Sprague-Dawley albino rat assessed as protection against maximal electroshock-induced seizures at 30 mg/kg, po after 4 hrs. The class given is functional.
Details: not given
Consider `COc1ccccc1N1CCN(CN2C(=O)CC(C)(c3ccccc3)C2=O)CC1` (stereo unspecified), for which the Activity was found to be 50%.

With `Cc1cccc(N2CCN(CN3C(=O)CC(C)(c4ccccc4)C3=O)CC2)c1` (stereo unspecified), the Activity stood at 50%.

Test system in a further data set: not listed separately
Put plainly: Neurotoxicity in ip dosed CF-1 albino mouse after 0.5 hrs by rotarod test. The class given is toxicity, organism-based. The note with it: CF-1, mouse, in vivo.
Consider `COc1ccccc1N1CCN(CN2C(=O)CC(C)(c3ccccc3)C2=O)CC1` (stereo unspecified), for which the TD50 at 0.5 h was found to be 300 mg/kg.

Take `Cc1cccc(N2CCN(CN3C(=O)CC(C)(c4ccccc4)C3=O)CC2)c1` (stereo unspecified): the TD50 at 0.5 h stood at 300 mg/kg.

The test system of a further data set is Rattus norvegicus. Put plainly: Anticonvulsant activity in Sprague-Dawley albino rat assessed as protection against maximal electroshock-induced seizures at 30 mg/kg, po after 0.5 hrs. The data set is classed as functional.
Details: not given
For the compound `COc1ccccc1N1CCN(CN2C(=O)CC(C)(c3ccccc3)C2=O)CC1` (stereo unspecified), the outcome was inactive.

As for `Cc1cccc(N2CCN(CN3C(=O)CC(C)(c4ccccc4)C3=O)CC2)c1` (stereo unspecified), the outcome was inactive.

Test system in a further data set: not listed separately
Put plainly: Neurotoxicity in ip dosed CF-1 albino mouse after 4 hrs by rotarod test. The data set is classed as toxicity, organism-based. The note with it: CF-1, mouse, in vivo.
`COc1ccccc1N1CCN(CN2C(=O)CC(C)(c3ccccc3)C2=O)CC1` (stereo unspecified): the TD50 at 4 h amounted to 300 mg/kg.

`Cc1cccc(N2CCN(CN3C(=O)CC(C)(c4ccccc4)C3=O)CC2)c1` (stereo unspecified) returned a TD50 at 4 h of 300 mg/kg.

The subject of another data set is Mus musculus. Put plainly: Neurotoxicity in CF-1 albino mouse at 300 mg/kg, ip after 0.5 hrs by rotarod test. The data set is classed as toxicity, organism-based. More on the design: dose 300 mg/kg, route intraperitoneal. As to conditions: in vivo.
For `COc1cccc(N2CCN(CN3C(=O)CC(C)(c4ccccc4)C3=O)CC2)c1` (stereo unspecified), the Activity entry is reported as “Non-toxic”.

A further data set has as its system Mus musculus. The data set can be described thus: Anticonvulsant activity in ip dosed CF-1 albino mouse assessed as protection against maximal electroshock-induced seizures after 4 hrs. The class given is functional.
Details: not given
For the compound `COc1cccc(N2CCN(CN3C(=O)CC(C)(c4ccccc4)C3=O)CC2)c1` (stereo unspecified), the MED50 turned out to be 100 mg/kg.

With `COc1ccccc1N1CCN(CN2C(=O)CC(C)(c3ccccc3)C2=O)CC1` (stereo unspecified), the MED50 stood at 100 mg/kg.

`Cc1cccc(N2CCN(CN3C(=O)CC(C)(c4ccccc4)C3=O)CC2)c1` (stereo unspecified): the MED50 was found to be 100 mg/kg.

A further data set concerns Vibrio harveyi. The data set can be described thus: Induction of mutagenecity in Vibrio harveyi BB7XM. The class given is organism-based. As to conditions: in vivo.
Regarding `COc1cccc(N2CCN(CN3C(=O)CC(C)(c4ccccc4)C3=O)CC2)c1` (stereo unspecified), the Activity entry is “Toxic”.

`COc1ccccc1N1CCN(CN2C(=O)CC(C)(c3ccccc3)C2=O)CC1` (stereo unspecified): the Activity result is reported as “Toxic”.

Regarding `Cc1cccc(N2CCN(CN3C(=O)CC(C)(c4ccccc4)C3=O)CC2)c1` (stereo unspecified), the Activity entry is “Toxic”.

A further data set concerns Rattus norvegicus. Put plainly: Anticonvulsant activity in Sprague-Dawley albino rat assessed as protection against maximal electroshock-induced seizures at 30 mg/kg, po after 1 hr. The class given is functional.
Details: not given
Take `COc1ccccc1N1CCN(CN2C(=O)CC(C)(c3ccccc3)C2=O)CC1` (stereo unspecified): the Activity is recorded as 50%.

Consider `Cc1cccc(N2CCN(CN3C(=O)CC(C)(c4ccccc4)C3=O)CC2)c1` (stereo unspecified), for which the Activity was found to be 50%.

In the next data set the test system is Vibrio harveyi. The data set can be described thus: Induction of mutagenecity in Vibrio harveyi BB7. As to conditions: in vivo. The data set is classed as organism-based.
`COc1cccc(N2CCN(CN3C(=O)CC(C)(c4ccccc4)C3=O)CC2)c1` (stereo unspecified): the Activity entry is on record as “Non-toxic”.

As to `COc1ccccc1N1CCN(CN2C(=O)CC(C)(c3ccccc3)C2=O)CC1` (stereo unspecified), the Activity entry is on record as “Non-toxic”.

As to `Cc1cccc(N2CCN(CN3C(=O)CC(C)(c4ccccc4)C3=O)CC2)c1` (stereo unspecified), the Activity result is listed as “Non-toxic”.

The subject of a further data set is Rattus norvegicus. The data set can be described thus: Anticonvulsant activity in Sprague-Dawley albino rat assessed as protection against maximal electroshock-induced seizures at 30 mg/kg, po after 2 hrs. The data set is classed as functional.
Details: not given
On to `COc1ccccc1N1CCN(CN2C(=O)CC(C)(c3ccccc3)C2=O)CC1` (stereo unspecified), for which the Activity is 50%.

With `Cc1cccc(N2CCN(CN3C(=O)CC(C)(c4ccccc4)C3=O)CC2)c1` (stereo unspecified), the Activity is 50%.
